Results from EP2264010A1, “Hetarylamidines” (Bayer CropScience AG, priority 2009, dated 2010).

Legend:
[1] = logP by HPLC on reversed-phase columns (C 18), EEC Directive 79/831 Annex V.A8; format: physicochemical; conditions: c18 reversed-phase hplc, reversed-phase (C 18), read-out: log p
Description: Die Messung der logP Werte erfolgte gemäß EEC Directive 79/831 Annex V.A8 durch HPLC (High Performance Liquid Chromatography) an reversed-phase Säulen (C 18), mit der nachfolgenden Methode: […]

MATIN = assay: Herbicidal activity, test type PE; format: in vivo; conditions: TEST-TYP PE; for pest or weed control at 320 g/ha: read-out: herbizide Wirkung MATIN
VIOTR [2] = assay: Herbicidal activity, test type PE; format: in vivo; conditions: TEST-TYP PE, read-out: herbizide Wirkung VIOTR
AMARE [3] = assay: Herbicidal activity, test type PO; format: in vivo; conditions: TEST-TYP PO, 80 G/HA
VIOTR [4] = assay: Herbicidal activity, test type PO; format: in vivo; conditions: TEST-TYP PO, 80 G/HA
VERPE [5] = assay: Herbicidal activity, test type PE; format: in vivo; conditions: TEST-TYP PE, read-out: herbizide Wirkung VERPE
SETVI = assay: Herbicidal activity, test type PE; format: in vivo; conditions: TEST-TYP PE; for pest or weed control at 320 g/ha: read-out: herbizide Wirkung SETVI
LOLMU = assay: Herbicidal activity, test type PE; format: in vivo; conditions: TEST-TYP PE, read-out: herbizide Wirkung LOLMU
STEME = assay: Herbicidal activity, test type PE; format: in vivo; conditions: TEST-TYP PE, read-out: herbizide Wirkung STEME
AMARE [6] = assay: Herbicidal activity, test type PE; format: in vivo; conditions: Amaranthus retroflexus, TEST-TYP PE, read-out: herbizide Wirkung AMARE
PHBPU = assay: Herbicidal activity, test type PO; format: in vivo; conditions: TEST-TYP PO, 80 G/HA
VERPE [7] = assay: Herbicidal activity, test type PO; format: in vivo; conditions: TEST-TYP PO, 80 G/HA
ALOMY = assay: Herbicidal activity, test type PE; format: in vivo; conditions: TEST-TYP PE, 320 G/HA
ECHCG = assay: Herbicidal activity, test type PE; format: in vivo; conditions: TEST-TYP PE, 320 G/HA

chromatographic logP [1] | SMILES | pest or weed control at 320 g/ha (VIOTR [2]) [%] | pest or weed control at 320 g/ha (VERPE [5]) [%] | pest or weed control at 320 g/ha (SETVI) [%] | pest or weed control at 320 g/ha (AMARE [6]) [%] | further results
1.33 | Cc1cnc(N=CN(C)C)c(-c2ccc(F)c(C(F)(F)F)c2)c1 [compound 19] | – | – | – | – | –
– | Cc1cccc(-c2cnc(N=CN(C)C)c(C)c2)c1 [compound 106] | 80 | – | – | – | pest or weed control at 320 g/ha (MATIN): 80%
– | Cc1cc(-c2ccc(F)c(C(F)(F)F)c2)cnc1N=CN(C)C [compound 64] | 90 | 100 | 90 | 90 | herbizide Wirkung AMARE (AMARE [3]): 80; herbizide Wirkung VIOTR (VIOTR [4]): 80; pest or weed control at 320 g/ha (LOLMU): 90%; pest or weed control at 320 g/ha (STEME): 90%; pest or weed control at 320 g/ha (MATIN): 100%
– | Cc1cnc(N=CN(C)C)c(-c2cccc(C(F)(F)F)c2)c1 [compound 31] | – | 80 | 80 | – | –
0.87 | CC(=Nc1ncc(C)cc1-c1ccc(Cl)c(C(F)(F)F)c1)N(C)C [compound 9] | – | – | – | – | –
1.46 | Cc1cnc(N=CN2CCCC2)c(-c2ccc(F)c(C(F)(F)F)c2)c1 [compound 25] | – | – | 80 | 80 | –
3.09 | CCN(C)C=Nc1ncc(Br)cc1-c1ccc(Cl)c(C(F)(F)F)c1 [compound 17] | – | – | – | – | –
– | Cc1cc(-c2cccc(C(F)(F)F)c2)cnc1N=CN(C)C [compound 76] | 90 | – | 100 | 90 | –
1.63 | Cc1cnc(N=CN2CCCC2)c(-c2ccc(Cl)c(C(F)(F)F)c2)c1 [compound 10] | – | – | – | – | –
– | Cc1cc(-c2ccc(Cl)c(C(F)(F)F)c2)cnc1N=CN(C)C [compound 59] | 80 | 80 | – | 80 | pest or weed control at 320 g/ha (STEME): 80%; pest or weed control at 320 g/ha (MATIN): 80%
– | CCN(C)C=Nc1ncc(-c2ccc(Cl)c(Cl)c2)cc1C [compound 94] | 80 | 80 | 90 | – | –
– | CCN(C=Nc1ncc(Cl)cc1-c1ccc(F)c(C(F)(F)F)c1)CC [compound 140] | – | – | – | – | herbizide Wirkung PHBPU (PHBPU): 80; herbizide Wirkung AMARE (AMARE [3]): 80; herbizide Wirkung SETVI (SETVI; 320 G/HA): 80; herbizide Wirkung VERPE (VERPE [7]): 80; herbizide Wirkung MATIN (MATIN; 320 G/HA): 80
– | CCN(C)C=Nc1ncc(C)cc1-c1ccc(Cl)c(C(F)(F)F)c1 [compound 2] | 90 | – | 90 | – | –
– | Cc1cnc(N=CN2CCCC2)c(-c2ccc(F)c(C(F)(F)F)c2)c1 [compound 147] | – | 90 | – | – | –
– | Cc1cc(-c2ccc(Cl)c(Cl)c2)cnc1N=CN(C)C [compound 95] | 80 | – | 80 | – | –
– | CCN(C)C=Nc1ncc(-c2ccc(F)c(C(F)(F)F)c2)cc1C [compound 66] | 90 | 90 | 100 | 90 | herbizide Wirkung PHBPU (PHBPU): 80; herbizide Wirkung ALOMY (ALOMY): 80; herbizide Wirkung VIOTR (VIOTR [4]): 80; pest or weed control at 320 g/ha (LOLMU): 90%; pest or weed control at 320 g/ha (STEME): 90%; herbizide Wirkung ECHCG (ECHCG): 90; pest or weed control at 320 g/ha (MATIN): 90%
– | CCN(C)C=Nc1ncc(-c2cccc(Cl)c2)cc1C [compound 101] | 80 | – | 90 | 80 | herbizide Wirkung PHBPU (PHBPU): 80; herbizide Wirkung AMARE (AMARE [3]): 80; pest or weed control at 320 g/ha (LOLMU): 80%; herbizide Wirkung ECHCG (ECHCG): 85; pest or weed control at 320 g/ha (MATIN): 95%
1.75 | Fc1ccc(-c2cc(Cl)cnc2N=CN2CCCC2)cc1C(F)(F)F [compound 16] | – | 80 | 100 | – | pest or weed control at 320 g/ha (LOLMU): 80%; pest or weed control at 320 g/ha (STEME): 80%
– | CCN(C)C=Nc1ncc(-c2cccc(C(F)(F)F)c2)cc1C [compound 77] | – | – | 90 | 80 | pest or weed control at 320 g/ha (LOLMU): 90%; herbizide Wirkung ECHCG (ECHCG): 90
– | CCN(C)C=Nc1ncc(Cl)cc1-c1ccc(Cl)c(C(F)(F)F)c1 [compound 4] | 80 | – | 90 | 90 | –
